One compound from article PMC10382584, “Macrocyclization of linear molecules by deep learning to facilitate macrocyclic drug candidates discovery” (Nature Communications, 2023) can be followed below.

Targets include DYRK1B (Homo sapiens, UniProt Q9Y463); LTK (Homo sapiens, UniProt P29376); CSNK1G2 (Homo sapiens, UniProt P78368); IRAK4 (Homo sapiens, UniProt Q9NWZ3); ERBB4 (Homo sapiens, UniProt Q15303); AKT3 (Homo sapiens, UniProt Q9Y243); BRSK1 (Homo sapiens, UniProt Q8TDC3).
Holding throughout (experiment): biochemical
Holding throughout (parameters): DiscoveRx KINOMEscan competition binding, percent of DMSO control signal at 100 nM
Holding throughout (settings): read-out: Fig. 4a / Percent Control / Compound 1; percent of DMSO control, competition binding

The target in experiment [1] is T1, ABL1(H396P)-nonphosphorylated (Homo sapiens, UniProt P00519, H396P).
T1 construct: nonphosphorylated
Experimental: (§1) The kinase selectivity profile was performed by using the DiscoveRx KINOMEscan platform. […] Test compounds were prepared as 40× stocks in 100% DMSO and directly diluted into the assay. The results were defined as a percentage of signal between the negative (DMSO, 100% control) and the positive (control compound, 0% control) control, which was calculated as follows: percent control = [(test compound signal − positive control signal)/(negative control signal − positive control signal)] × 100.

Chain of BRSK1 (Q8TDC3 whole entry): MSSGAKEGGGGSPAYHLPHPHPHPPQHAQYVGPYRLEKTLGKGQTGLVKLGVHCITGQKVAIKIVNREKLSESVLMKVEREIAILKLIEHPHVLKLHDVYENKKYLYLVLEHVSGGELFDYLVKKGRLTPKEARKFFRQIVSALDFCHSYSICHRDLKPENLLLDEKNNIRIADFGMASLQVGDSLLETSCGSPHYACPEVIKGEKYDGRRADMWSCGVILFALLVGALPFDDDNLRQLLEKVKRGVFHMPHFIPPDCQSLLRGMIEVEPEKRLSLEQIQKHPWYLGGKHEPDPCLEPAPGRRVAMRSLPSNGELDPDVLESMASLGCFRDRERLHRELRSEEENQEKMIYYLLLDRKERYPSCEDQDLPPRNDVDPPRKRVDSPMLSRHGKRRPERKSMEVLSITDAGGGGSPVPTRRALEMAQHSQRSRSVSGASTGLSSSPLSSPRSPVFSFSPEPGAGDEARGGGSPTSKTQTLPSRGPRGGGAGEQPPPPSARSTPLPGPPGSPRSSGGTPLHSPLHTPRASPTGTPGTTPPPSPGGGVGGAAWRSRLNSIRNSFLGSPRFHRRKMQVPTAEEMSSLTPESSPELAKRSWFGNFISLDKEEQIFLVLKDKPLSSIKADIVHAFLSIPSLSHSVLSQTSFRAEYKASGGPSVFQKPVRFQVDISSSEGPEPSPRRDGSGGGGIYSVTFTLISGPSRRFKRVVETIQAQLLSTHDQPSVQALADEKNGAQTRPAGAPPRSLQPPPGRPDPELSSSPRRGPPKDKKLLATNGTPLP
Chain of AKT3 (Q9Y243 whole entry): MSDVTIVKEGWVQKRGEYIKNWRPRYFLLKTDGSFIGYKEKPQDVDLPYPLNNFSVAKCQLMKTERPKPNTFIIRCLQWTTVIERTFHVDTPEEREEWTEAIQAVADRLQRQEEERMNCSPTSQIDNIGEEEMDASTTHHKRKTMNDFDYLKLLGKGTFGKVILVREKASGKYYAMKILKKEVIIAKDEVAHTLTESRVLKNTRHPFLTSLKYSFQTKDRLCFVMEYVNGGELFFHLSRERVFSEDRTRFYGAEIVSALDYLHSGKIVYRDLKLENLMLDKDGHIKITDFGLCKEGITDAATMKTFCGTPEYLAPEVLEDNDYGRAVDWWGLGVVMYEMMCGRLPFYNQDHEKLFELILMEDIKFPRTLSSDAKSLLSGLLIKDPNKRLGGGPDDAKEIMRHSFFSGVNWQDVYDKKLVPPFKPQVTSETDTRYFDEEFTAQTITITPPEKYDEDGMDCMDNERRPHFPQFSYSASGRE
Chain of IRAK4 (Q9NWZ3 whole entry): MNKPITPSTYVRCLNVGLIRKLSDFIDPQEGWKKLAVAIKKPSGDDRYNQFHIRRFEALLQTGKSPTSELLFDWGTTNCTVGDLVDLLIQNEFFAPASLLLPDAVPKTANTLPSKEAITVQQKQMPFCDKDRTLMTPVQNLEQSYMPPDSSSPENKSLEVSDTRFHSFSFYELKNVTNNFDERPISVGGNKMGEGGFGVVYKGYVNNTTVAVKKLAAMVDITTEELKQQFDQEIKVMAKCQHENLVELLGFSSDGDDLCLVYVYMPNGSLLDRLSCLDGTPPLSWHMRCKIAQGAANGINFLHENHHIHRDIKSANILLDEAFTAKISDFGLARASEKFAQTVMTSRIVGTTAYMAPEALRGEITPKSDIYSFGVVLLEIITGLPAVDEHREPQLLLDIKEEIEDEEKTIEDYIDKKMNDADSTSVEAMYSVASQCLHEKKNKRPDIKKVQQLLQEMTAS
Chain of ERBB4 (Q15303 whole entry): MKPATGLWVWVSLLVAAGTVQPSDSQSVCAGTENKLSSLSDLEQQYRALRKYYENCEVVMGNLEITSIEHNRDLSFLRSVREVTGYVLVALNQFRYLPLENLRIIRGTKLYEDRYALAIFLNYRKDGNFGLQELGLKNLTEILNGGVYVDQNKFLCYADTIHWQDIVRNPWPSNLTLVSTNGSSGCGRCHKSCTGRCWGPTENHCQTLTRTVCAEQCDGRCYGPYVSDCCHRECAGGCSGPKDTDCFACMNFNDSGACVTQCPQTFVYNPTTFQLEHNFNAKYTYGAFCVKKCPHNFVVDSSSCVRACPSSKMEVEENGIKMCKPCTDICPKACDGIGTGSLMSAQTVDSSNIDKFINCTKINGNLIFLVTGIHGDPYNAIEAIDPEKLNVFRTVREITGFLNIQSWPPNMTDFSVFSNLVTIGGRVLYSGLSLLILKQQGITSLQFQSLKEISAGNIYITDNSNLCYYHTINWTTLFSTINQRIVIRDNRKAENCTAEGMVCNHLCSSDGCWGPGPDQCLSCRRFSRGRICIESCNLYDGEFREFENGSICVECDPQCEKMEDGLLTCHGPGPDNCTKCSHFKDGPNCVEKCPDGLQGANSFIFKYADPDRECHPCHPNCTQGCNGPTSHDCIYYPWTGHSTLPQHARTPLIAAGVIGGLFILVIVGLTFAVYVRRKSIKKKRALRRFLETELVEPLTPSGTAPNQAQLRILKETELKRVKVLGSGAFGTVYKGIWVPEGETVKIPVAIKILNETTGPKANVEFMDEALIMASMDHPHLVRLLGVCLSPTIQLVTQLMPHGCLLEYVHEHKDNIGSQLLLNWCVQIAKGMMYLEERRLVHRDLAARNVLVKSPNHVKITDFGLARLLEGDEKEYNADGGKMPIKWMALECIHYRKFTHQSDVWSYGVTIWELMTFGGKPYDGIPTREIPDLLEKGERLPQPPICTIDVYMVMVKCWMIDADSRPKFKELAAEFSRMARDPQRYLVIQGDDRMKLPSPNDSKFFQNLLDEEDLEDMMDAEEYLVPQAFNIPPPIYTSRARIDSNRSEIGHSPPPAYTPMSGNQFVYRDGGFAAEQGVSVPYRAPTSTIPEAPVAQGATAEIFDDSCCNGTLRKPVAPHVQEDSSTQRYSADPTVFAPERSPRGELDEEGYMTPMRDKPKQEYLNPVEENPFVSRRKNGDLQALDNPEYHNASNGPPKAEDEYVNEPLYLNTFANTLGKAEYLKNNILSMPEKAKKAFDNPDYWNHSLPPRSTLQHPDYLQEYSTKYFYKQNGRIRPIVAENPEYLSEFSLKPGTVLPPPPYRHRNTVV
Chain of DYRK1B (Q9Y463 whole entry): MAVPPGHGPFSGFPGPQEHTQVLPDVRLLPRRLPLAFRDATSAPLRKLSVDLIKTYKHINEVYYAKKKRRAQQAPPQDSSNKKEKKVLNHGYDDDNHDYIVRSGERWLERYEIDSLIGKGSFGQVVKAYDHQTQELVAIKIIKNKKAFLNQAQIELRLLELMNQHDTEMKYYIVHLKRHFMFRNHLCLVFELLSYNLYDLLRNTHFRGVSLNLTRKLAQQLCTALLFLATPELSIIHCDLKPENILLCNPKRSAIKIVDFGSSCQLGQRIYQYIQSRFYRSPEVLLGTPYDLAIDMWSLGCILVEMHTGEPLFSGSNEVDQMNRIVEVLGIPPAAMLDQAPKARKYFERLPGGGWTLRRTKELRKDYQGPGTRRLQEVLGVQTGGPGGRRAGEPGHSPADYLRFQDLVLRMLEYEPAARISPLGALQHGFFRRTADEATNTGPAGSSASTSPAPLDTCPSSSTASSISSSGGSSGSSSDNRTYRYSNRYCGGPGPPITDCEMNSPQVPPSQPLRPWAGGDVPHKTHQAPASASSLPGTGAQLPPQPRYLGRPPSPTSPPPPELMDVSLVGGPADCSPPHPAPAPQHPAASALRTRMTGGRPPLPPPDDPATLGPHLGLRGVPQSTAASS
Chain of CSNK1G2 (P78368 whole entry): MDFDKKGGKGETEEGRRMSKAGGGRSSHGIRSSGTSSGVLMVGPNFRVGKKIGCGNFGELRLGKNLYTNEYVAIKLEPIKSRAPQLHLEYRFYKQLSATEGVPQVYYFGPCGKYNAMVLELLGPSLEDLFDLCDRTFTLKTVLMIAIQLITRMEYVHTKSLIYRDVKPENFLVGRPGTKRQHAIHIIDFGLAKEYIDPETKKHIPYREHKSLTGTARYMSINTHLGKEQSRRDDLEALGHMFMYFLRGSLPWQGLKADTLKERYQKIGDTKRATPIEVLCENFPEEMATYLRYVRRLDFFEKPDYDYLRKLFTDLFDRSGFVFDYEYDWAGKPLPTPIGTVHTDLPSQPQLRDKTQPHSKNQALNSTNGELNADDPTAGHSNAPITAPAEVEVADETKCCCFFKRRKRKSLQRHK
Chain of LTK (P29376 whole entry): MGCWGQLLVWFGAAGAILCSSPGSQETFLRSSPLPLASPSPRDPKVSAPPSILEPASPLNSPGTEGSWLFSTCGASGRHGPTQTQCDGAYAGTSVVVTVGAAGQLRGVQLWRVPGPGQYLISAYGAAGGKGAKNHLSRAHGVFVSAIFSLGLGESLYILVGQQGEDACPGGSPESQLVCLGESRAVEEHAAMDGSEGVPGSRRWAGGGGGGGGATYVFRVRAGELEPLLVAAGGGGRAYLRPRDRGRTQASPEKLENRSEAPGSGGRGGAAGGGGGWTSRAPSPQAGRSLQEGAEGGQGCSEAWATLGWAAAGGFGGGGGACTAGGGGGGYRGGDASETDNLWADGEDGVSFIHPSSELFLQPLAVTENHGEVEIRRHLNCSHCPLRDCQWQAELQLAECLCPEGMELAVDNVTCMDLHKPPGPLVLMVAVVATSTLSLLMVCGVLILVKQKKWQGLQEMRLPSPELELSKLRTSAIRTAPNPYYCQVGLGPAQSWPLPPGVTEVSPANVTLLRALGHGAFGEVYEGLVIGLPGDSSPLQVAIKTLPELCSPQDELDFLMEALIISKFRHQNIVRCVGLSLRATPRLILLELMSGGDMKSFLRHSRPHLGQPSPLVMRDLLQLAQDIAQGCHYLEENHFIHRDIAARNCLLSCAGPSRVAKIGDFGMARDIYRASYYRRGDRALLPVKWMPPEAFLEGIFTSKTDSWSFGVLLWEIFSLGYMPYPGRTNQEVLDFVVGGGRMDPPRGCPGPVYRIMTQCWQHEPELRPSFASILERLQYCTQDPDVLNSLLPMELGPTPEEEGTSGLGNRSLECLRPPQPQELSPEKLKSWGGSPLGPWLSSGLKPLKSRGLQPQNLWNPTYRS
Experimental for AKT3: as §1
Experimental for BRSK1: as §1
Experimental for CSNK1G2: as §1
Experimental for DYRK1B: as §1
Experimental for ERBB4: as §1
Experimental for IRAK4: as §1
Experimental for LTK: as §1

With `Cc1cnc2nc1Nc1cccc(c1)COCc1cc(ccc1OCCN1CCCC1)N2` [Compound 1], the remaining binding at 0.1 µM on DYRK1B was determined as 100%; on LTK it was 100%; at CSNK1G2, 99%; on IRAK4, 72%; at ERBB4 it was 82%; in experiment [1], 37%. The remaining binding at 0.1 µM on AKT3 amounted to 100%; at BRSK1, 93%.
